In patent US11964941B2, “5-Bromo-indirubins” (City of Hope, priority 2014, dated 2024):

Columns and labels:
Assay type in all cases: cell-based, human
A2058 melanoma cells = experiment: MTS cell viability, A2058 melanoma cells; conditions: Homo sapiens, 48 h, read-out: IC50 for 50% inhibition of viability
Experimental: (§1) MTS assays were performed for cell viability. Human cancer cells were seeded in 96-well plates (2500 cells/well for solid tumors, 5000 cells/well for blood tumors), incubated overnight at 37 C in 5% CO2, and exposed to 5IN-1NH1 or 5IN-1NH1s in a dose-dependent manner for 48 h. See FIGS. 1A-1B, 2A-2B, 3, 4A-4B, and 6A-6B. Dimethyl sulfoxide (DMSO) was used as the vehicle control. Viable cell numbers were determined by tetrazolium conversion to its formazan dye and absorbance was measured at 490 nm using an automated ELISA plate reader. Each experiment was performed in quadruplicate. IC50 values were determined using CalcuSyn software (BIOSOFT®, Cambridge GB).

[1] = test system: DU145 prostate cancer cells; experiment: MTS cell viability, DU145 prostate cancer cells; conditions: Homo sapiens, DU-145, 48 h, read-out: IC50 for 50% inhibition of viability
Experimental: as §1

A549 lung cancer cells = experiment: MTS cell viability, A549 lung cancer cells; conditions: Homo sapiens, 48 h, read-out: IC50 for 50% inhibition of viability
Experimental: as §1

[2] = test system: MDA-MB-231 breast cancer cells; experiment: MTS cell viability, MDA-MB-231 breast cancer cells; conditions: Homo sapiens, 48 h, read-out: IC50 for 50% inhibition of viability
Experimental: as §1

[3] = test system: SKOV3 ovarian cancer cells; experiment: MTS cell viability, SKOV3 ovarian cancer cells; conditions: Homo sapiens, SK-OV-3, 48 h, read-out: IC50 for 50% inhibition of viability
Experimental: as §1

MV4-11 AML cells = experiment: MTS cell viability, MV4-11 AML cells (FLT3-ITD); conditions: Homo sapiens, 48 h, read-out: IC50 for 50% inhibition of viability
Experimental: as §1
(§2) Compound (1289) inhibits viabilities of MV4-11 and MOLM13 AML cells that harbor an internal tandem duplication (ITD) mutation. MTS assays were performed for cell viability. Human MV4-11 and MOLM13 AML cells (5000/well) were seeded in 96-well plates, incubated overnight at 37° C. in 5% CO2, and exposed to compound (1289) in a dose-dependent manner for 48 h. Dimethyl sulfoxide (DMSO) was used as the vehicle control. Viable cell numbers were determined by tetrazolium conversion to its formazan dye and absorbance was measured at 490 nm using an automated ELISA plate reader. Each experiment was performed in quadruplicate. IC50 values were determined using CalcuSyn software.

MOLM13 AML cells = experiment: MTS cell viability, MOLM13 AML cells (FLT3-ITD); conditions: Homo sapiens, MOLM-13, 48 h, read-out: IC50 for 50% inhibition of viability
Experimental: as §1, §2

KCL22 CML cells = experiment: MTS cell viability, KCL22 CML cells; conditions: Homo sapiens, KCL-22, 48 h, read-out: IC50 for 50% inhibition of viability
Experimental: as §1

[4] = test system: T315I ABL1 mutant KCL22 CML cells; experiment: MTS cell viability, T315I ABL1 mutant KCL22 CML cells
Experimental: as §1
Human DU145 prostate cancer, A2058 melanoma, SKOV3 ovarian cancer and T315I ABL1 mutant KCL22 CML cells were seeded in 96-well plates (2500 cells/well for solid tumors, 5000 cells/well for blood tumors), incubated overnight at 37° C. in 5% CO2, and exposed to 5IN-6NC1, 5IN-1NH1, 5IN-6NNC6, or 5IN-6NNC7 in a dose-dependent manner for 48 h. Dimethyl sulfoxide (DMSO) was used as the vehicle control. Viable cell numbers were determined by tetrazolium conversion to its formazan dye and absorbance was measured at 490 nm using an automated ELISA plate reader. Each experiment was performed in quadruplicate. IC50 values were determined using CalcuSyn software.

With `CNCCO/N=C1/C(=C2/C(=O)Nc3ccc(Br)cc32)Nc2ccccc21` [5IN-1NH1] the IC50 (A2058 melanoma cells) was 77.2 nM, the IC50 [1] was 35.7 nM and the IC50 (A549 lung cancer cells) was 66.5 nM. For the same compound, the IC50 [2] was 49.5 nM, the IC50 [3] was 174 nM and the IC50 (MV4-11 AML cells) was 7.8 nM. For the same compound, the IC50 (MOLM13 AML cells) was 11.3 nM, the IC50 (KCL22 CML cells) was 57.4 nM and the IC50 ([4]; Homo sapiens, KCL-22, T315I ABL1 mutant KCL22 CML cells, MTS, 48 h, read-out: IC50 for 50% inhibition of viability) was 52.3 nM. For the same compound, the “potency against T315I KCL22 CML cells relative to compound (1289)” value ([4]; more potent than compound (1289)) was “around 10 fold”.
